Results on three sequences are retold here after patent US20230270119A1, “BIOSTIMULANT AND BIOPROTECTIVE PEPTIDES AND THEIR USE IN AGRICULTURE” (priority 2020, published 2023).

For one test, the system named is Alternaria alternata. The experiment in a line: Alternaria alternata necrosis areas on treated tomato leaves. In kind it is in vivo. The settings on record: 100 fM, day 8, control 17 mm^2 (FIG. 14B). As to the method:
(§1) For the performance of assays on the phytopathogenic Botrytis cinerea and Alternaria alternata fungi, the present inventors used spores of this microorganism obtained from cultures on solid PDA (Potato Dextrose Agar) sporulation substrate. The plates were inoculated with 20 μl of a conidial suspension at a concentration of 1×10^6 spores/ml and incubated for 15 days at 25° C. in the presence of diffused light, so as to obtain complete sporulation. The spores were then collected in 5 ml of sterile water and, in order to remove the mycelium, were filtered through glass wool, washed with sterile distilled water and collected by centrifugation at room temperature. The concentration of spores suitable for inoculation (10^5-10^7 spores/ml) was determined by the serial dilution method using a Burker cell counting chamber for spore counting.
(§2) The assay was carried out on a detached leaf by taking a compound leaf for each treated tomato plant and for each control plant. Each leaflet of the compound leaf was marked with 3 markers in order to guide the subsequent application of the spores and detection of the pathogen developing necrotic areas.
The present inventors also performed assays aimed at determining the effects of exogenous application of the peptides of the invention on tomato plants against the development of the necrotrophic Alternaria alternata fungus (FIG. 14).
The positive effect of the treatment was statistically significant from day 1 of inoculation of the pathogen to day 8 where values of 24 mm^2 were reached on the control leaves, unlike the treated leaves where values of 8.4 and 8.0 mm^2 were recorded on leaves treated with the peptides PS1-70 and PS1-120 at a concentration of 100 fM (FIG. 14A); and values of 17 mm^2 were recorded on the control leaves and values of 8.3 mm^2, 7.9 mm^2, 8.9 mm^2, and 7.8 mm^2 were recorded on leaves treated with the peptides PS1-70, SEQ ID NO.8, SEQ ID NO.3 and SEQ ID NO.5, respectively, at a concentration of 100 fM (FIG. 14B).

The next test concerns Botrytis cinerea. Put plainly: Botrytis cinerea necrosis areas on treated detached tomato leaves. The settings on record: 100 fM, day 8, control 11.72 mm^2 (FIG. 13). The class given is in vivo, Botrytis cinerea on Solanum lycopersicum. On the procedure:
as §1, §2
The leaves were treated by applying 2 μl of a composition comprising the peptides PS1-70 and PS1-120 of the invention at a concentration of 100 pM, 100 fM or 1×PBS for the control leaves. After 6 hours, the time necessary for the perception of the peptides, the leaves were detached from the plant and inoculations with 10 μl of spore solution were carried out in the internerve spaces and near the previously marked points. Monitoring was carried out by measuring the necrosis areas (expressed in mm^2) 1, 3, 5, 8 days after inoculation of the pathogen. The necrosis areas recorded on the control leaves were much larger than those detected on plants treated with the peptides of the invention. This difference increased as a function of the time elapsed since inoculation. The resistance inducing effect of the picomolar treatment is already statistically significant from the first day of inoculation of the pathogen up to the eighth day where values of 33 mm^2 were reached on the control leaves, unlike the treated leaves where values not exceeding 18 mm^2 were recorded for both peptides (FIG. 12A).

The subject of test [1] is Spodoptera littoralis larvae. The experiment in a line: Bioassay on Spodoptera littoralis larvae fed with peptide-treated tomato leaves. The class given is in vivo. Particulars: day 13, femtomolar concentration; for average weight of larvae: control 59 mg (FIG. 11A); for survival rate of larvae: control 100% (FIG. 11B). As to the method:
Briefly, S. littoralis larvae were grown in a climate chamber at 25° C., 70% relative humidity (RH), with a 16-hour light and 8-hour dark photoperiod and fed with an artificial diet until completion of the first moult. For the bioassays, 150 larvae for each thesis were grown on tomato leaves for the entire duration of the second instar to adapt them to the different diet. The newly moulted third-instar larvae up to the moult stage were fed with plants on which a composition comprising peptides PS1-70 and PS1-120 had been applied at 100 pM and 100 fM concentrations in 1×PBS buffer. Larvae fed with plants treated with 1×PBS buffer only were used as a control. Bioassays were carried out under the same environmental conditions, in 32-well plastic trays containing 1.5% (w/v) agar and 0.005% (w/v) methyl parahydroxybenzoate, which are useful for creating a humid environment for maintaining cell turgor of tomato leaves. Each experimental group consisted of 32 larvae. The survival of the larvae was monitored daily, and their weight every other day. […] A significant decrease in the survival of larvae fed with leaves of plants treated with the peptides of the invention compared to those fed with leaves of the control plants was also observed for both assays (FIGS. 10B and 10D). […] The same assay scheme was carried out by the present inventors by feeding S. littoralis larvae with leaves treated with the peptide PS1-70 and with peptides having the sequences SEQ ID NO. 3, 5, and 8 at femtomolar concentration. […] A significant decrease was also observed in the survival of larvae fed with peptide-treated leaves compared to those fed with the control leaves (FIG. 11B). […] 8, SEQ ID NO. 3, and SEQ ID NO. 5 (FIG. 11B).

Test [2] is described as follows: Biometric parameters of tomato plants irrigated with peptides. Particulars: 100 fM. In kind it is in vivo. As to the method: FIG. 20 illustrates the effect of irrigation treatment with the peptides PS1-70, PS1-120 and SEQ ID NO.5 at a concentration of 100 fM on the biometric parameters of the tomato plant. […] The asterisks indicate the statistical significance of the data by Student's t-test (*p<0.05). A few biometric parameters are shown in FIG. 20, measured after 14 days of continuous salt stress (150 mM) and 15 days after irrigation with the peptides PS1-70, PS1-120 and SEQ ID NO.5 at 100 fM concentrations, and the respective controls.

Another test relates to CAT2, SAM and APX2 genes. Put plainly: Salt stress gene expression in tomato plants irrigated with 100 fM peptides. Particulars: femtomolar. In kind it is in vivo. On the procedure:
The analysis was carried out on the CAT2(A), SAM (B) and APX2 (C) genes. The asterisks indicate the statistical significance of the data by Student's t-test (*p<0.05; **p<0.01; ***p<0.001). […] An experiment was also set up to verify the efficiency of the peptides PS1-70, PS1-120 and SEQ ID NO.5, when administered at femtomolar concentrations, in promoting tolerance to a high salt stress condition.

“DDMQEEPKVKLHHEKGGDEKEKIIEKETPSQDI [SEQ ID NO. 8]” had a necrosis areas in the test with Alternaria alternata of 7.9 mm^2. Besides, the necrosis areas with Botrytis cinerea is 7.67 mm^2. In addition, in test [1], the “average weight of larvae” value was 13 mg and the “survival rate of larvae” value is on record as 15.62%.
For EKETPSQDI [SEQ ID NO. 3] the same measures were 8.9 mm^2, 8.89 mm^2, 24 mg and 43.75%.
DDMQEEPKVKLHHEKG [SEQ ID NO. 5] had a necrosis areas in the test with Alternaria alternata of 7.8 mm^2. The sequence also gave a necrosis areas with Botrytis cinerea of 6.81 mm^2. Besides, the “root surface (root area)” value in test [2] (14 days of salt stress 150 mM, 15 days after irrigation (FIG. 20A)) is recorded as “greater root surface”. Besides, the “growth (fresh weight) of the aerial part” value in test [2] (absence of salt (FIG. 20B)) was “able to promote the growth of the aerial part of the plant”. Besides, the “activation of salt stress-responsive genes” value with CAT2, SAM and APX2 genes (8 days after irrigation, 0 mM NaCl (FIG. 18A1, B1, C1)) is “able to activate a series of salt stress-responsive genes”. Moreover, the “tolerance to salt / induction of responsive genes” value with CAT2, SAM and APX2 genes (irrigated 7 days with 150 mM NaCl (FIG. 18A2, B2, C2)) was “more salt-tolerant than the untreated control plants”. In test [1], the “average weight of larvae” value is 21 mg and the “survival rate of larvae” value was 15.62%.
